Read-outs that look alike come from different tables or passages of the source.
Legend:
[1] = test system: α-amylase; assay: α-amylase enzyme inhibition assay (starch, dinitro-salicylic acid, 540 nm); type: biochemical; settings: for IC50: read-out: IC50
Description: All derivatives of metformin were analyzed for serum amylase inhibitory activity using the Yukihoko Hara method. Three test tubes were labeled as blank (B), test (T), and control (C). Then, 2.5 mL of phosphate buffer (pH 6.8) was added to each test tube. Next, 1 mL of starch and 1 mL of 2 N sodium chloride solution were added to each test tube. The test tubes were incubated at 37 °C for 10 min. After incubation, 0.5 mL of derivatives was added to test tube T, followed by 0.2 mL of enzyme (α-amylase). All contents were mixed well, and then the tube was incubated at 37 °C for 10 min. In the control test tube, normal saline (2 N), starch solution (1 mL), and enzyme solution (0.2 mL) were added before incubating at 37 °C for 10 min. In the blank test tube, only 5.7 mL of distilled water was added. Dinitro-salicylic acid (0.2 mL) was added to all test tubes. The contents were mixed well, and the test tubes were kept in a boiling water bath for 15 min. The intensity of reddish orange was read at 540 nm. The percentage inhibitory action of serum amylase was calculated using the following formula:Percentage inhibition = OD of control − OD of test tube/OD of control × 100.

[2] = target: α-glucosidase; assay: α-glucosidase enzyme inhibition assay (starch substrate, anthrone reagent, 640 nm); type: biochemical
Description: The α-glucosidase-inhibitory activity of all derivatives of metformin was tested using the method previously described. Three test tubes were marked as test (T), blank (B), and control (C). Then, 200 µL of substrate (starch) and enzyme (α-glucosidase) was added to test tubes T and C. The contents were mixed well, and then the test tubes were incubated at 37 °C for 30 min. After incubation, trichloroacetic acid was added to all test tubes, which were then centrifuged for 10 min. Free glucose was available after the reaction with anthrone reagent (1.5 mL). The contents in the test tubes were boiled for 15 min, and the absorbance was read at a wavelength at 640 nm. The percentage inhibition was calculated using the following formula:Percentage inhibition = OD of control − OD of test tube/OD of control × 100.

[3] = 250 µg/mL, Table 9 (MZn series)
[4] = 500 µg/mL, Table 9 (MZn series)
[5] = 1000 µg/mL, Table 9 (MZn series)
[6] = 250 µg/mL, Table 6 (MZn series)
[7] = 500 µg/mL, Table 6 (MZn series)
[8] = 1000 µg/mL, Table 6 (MZn series)
[9] = 250 µg/mL, Table 7 (Met series)
[10] = 500 µg/mL, Table 7 (Met series)
[11] = 1000 µg/mL, Table 7 (Met series)
[12] = 250 µg/mL, Table 4 (Met series)
[13] = 500 µg/mL, Table 4 (Met series)
[14] = 1000 µg/mL, Table 4 (Met series)
[15] = Table 4 (Met series), read-out: IC50

Structure (SMILES)	% Inhibition [1, 3]	% Inhibition [1, 4]	% Inhibition [1, 5]	IC50 ([1]; Table 9 (MZn series))	IC50 [2]	% Inhibition [2, 6]	% Inhibition [2, 7]	% Inhibition [2, 8]	IC50 ([2]; Table 6 (MZn series), read-out: IC50)	% Inhibition [1, 9]	% Inhibition [1, 10]	% Inhibition [1, 11]	IC50 ([1]; Table 7 (Met series))	% Inhibition [2, 12]	% Inhibition [2, 13]	% Inhibition [2, 14]	IC50 [2, 15]
COc1cc(C=NC(=N)NC(=N)N(C)C)ccc1O.COc1cc(C=NC(=N)NC(=N)N(C)C)ccc1O.O.O.O.O.O.O=S(=O)([O-])[O-].[Zn+2] [MZn8]	37.46 ± 0.23%	68.50 ± 0.40%	83.52 ± 0.40%	900 µM	511.4 µg/mL	49.24 ± 0.21%	70.37 ± 0.25%	81.54 ± 0.26%	650 µM	–	–	–	–	–	–	–	–
CN(C)C(=N)NC(=N)N=C(c1ccccc1)C(O)c1ccccc1.CN(C)C(=N)NC(=N)N=C(c1ccccc1)C(O)c1ccccc1.O.O.O.O.O.O=S(=O)([O-])[O-].[Zn+2] (centres unmarked) [MZn9]	15.64 ± 0.28%	38.64 ± 0.40%	59.70 ± 0.46%	700 µM	–	28.64 ± 0.25%	37.51 ± 0.25%	45.37 ± 0.20%	–	–	–	–	–	–	–	–	–
C=NC(=N)NC(=N)N(C)C [Met4, N,N-dimethyl-N′-methylidenetriimidodicarbonic diamide]	–	–	–	–	–	–	–	–	–	15.48 ± 0.15%	37.65 ± 0.19%	55.48 ± 0.23%	700 µM	17.49 ± 0.29%	25.77 ± 0.35%	43.72 ± 0.26%	–
CC(C)=NC(=N)NC(=N)N(C)C [Met5, N,N-dimethyl-N′-(propan-2-ylidene)triimidodicarbonic diamide]	–	–	–	–	–	–	–	–	–	15.61 ± 0.20%	39.48 ± 0.32%	63.47 ± 0.23%	740 µM	22.85 ± 0.15%	39.43 ± 0.19%	53.44 ± 0.15%	2000 µM
C/C(=N\C(=N)NC(=N)N(C)C)c1ccccc1 [Met6, N,N-dimethyl-N′-[(1E)-1-phenylethylidene]triimidodicarbonic diamide]	–	–	–	–	–	–	–	–	–	18.48 ± 0.26%	33.35 ± 0.20%	41.34 ± 0.17%	1700 µM	16.41 ± 0.19%	28.86 ± 0.15%	51.47 ± 0.26%	1300 µM
CN(C)C(=N)NC(=N)N=C(c1ccccc1)c1ccccc1 [Met7, N′-(diphenylmethylidene)-N,N-dimethyltriimidodicarbonic diamide]	–	–	–	–	–	–	–	–	–	24.25 ± 0.20%	34.45 ± 0.26%	48.33 ± 0.51%	1400 µM	27.42 ± 0.32%	41.84 ± 0.15%	55.77 ± 0.01%	900 µM
CN(C)C(=N)NC(=N)N=C(c1ccccc1)C(O)c1ccccc1 (centres unmarked) [Met9, N′-[(1Z)-2-hydroxy-1,2-diphenylethylidene]-N,N-dimethyltriimidodicarbonic diamide]	–	–	–	–	–	–	–	–	–	5.41 ± 0.20%	8.61 ± 0.25%	19.71 ± 0.46%	790 µM	10.79 ± 0.10%	29.86 ± 0.10%	39.09 ± 0.05%	–
CN(C)C(=N)N=C(N)N [Met, N,N-dimethyltriimidodicarbonic diamide, reference compound]	–	–	–	–	–	–	–	–	–	55.27 ± 0.20%	63.18 ± 0.20%	85.25 ± 0.32%	9400 µM	41.73 ± 0.10%	52.83 ± 0.11%	81.30 ± 0.10%	4800 µM
